The target in the experiment is T1, Orexin receptor type 2 (Homo sapiens, UniProt O43614).
T1 sequence (O43614 whole entry): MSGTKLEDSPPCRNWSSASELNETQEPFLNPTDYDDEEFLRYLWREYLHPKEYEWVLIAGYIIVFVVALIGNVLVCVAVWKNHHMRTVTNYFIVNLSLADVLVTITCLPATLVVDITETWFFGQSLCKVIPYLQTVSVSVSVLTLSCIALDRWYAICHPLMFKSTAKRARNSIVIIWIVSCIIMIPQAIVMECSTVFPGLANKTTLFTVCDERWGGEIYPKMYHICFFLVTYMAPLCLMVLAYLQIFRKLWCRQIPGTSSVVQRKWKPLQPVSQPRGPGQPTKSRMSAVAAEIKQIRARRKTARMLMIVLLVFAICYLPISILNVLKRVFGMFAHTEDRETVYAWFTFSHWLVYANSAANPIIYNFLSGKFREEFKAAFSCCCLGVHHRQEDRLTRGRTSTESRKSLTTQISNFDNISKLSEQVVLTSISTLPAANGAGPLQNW
Nature of the experiment: Receptor Activity Assay: In a typical experiment, the OX1 and OX2 receptor agonist activity is determined in accordance with the following general experimental method.
As a reminder, the IC50 is the concentration that gives 50% inhibition. The molecule `CC(C)OC(=O)N1[C@H](C)C[C@H](NS(=O)(=O)N(C)C)[C@@H]1COC1CCN(c2ncc(F)cn2)CC1` registered an IC50 of 1.15 nM.

As for `COC(=O)N1C(C2CC2)C[C@H](NS(C)(=O)=O)C1COC1CCC(c2ccccc2)CC1` (stereo partly specified), the IC50 was 73.5 nM.

Molecule `CCc1ccccc1[C@H]1CC[C@H](OC[C@H]2[C@@H](NS(=O)(=O)N(C)C)C[C@@H](C)N2C(=O)OC)CC1` yielded an IC50 of 111 nM.

On to `COC[C@@H]1C[C@H](NS(=O)(=O)N(C)C)[C@H](CO[C@H]2CC[C@@H](c3cccc(F)c3)CC2)N1C(=O)OC`, for which the IC50 is 0.7 nM.

With `COC(=O)N1[C@H](C)C[C@H](NS(=O)(=O)N(C)C)[C@@H]1CO[C@@H]1CC[C@H](c2ccccc2)CC1F` (stereo partly specified), the IC50 amounted to 10.8 nM.

`COC(=O)N1[C@H](C)C[C@H](NS(=O)(=O)N(C)C)[C@@H]1CO[C@H]1CC[C@@H](c2cc(F)cc(F)c2)CC1` came in with an IC50 of 0.52 nM.

Consider `COC(=O)N1[C@H](C)C[C@H](NS(C)(=O)=O)[C@@H]1CO[C@H]1CC[C@@H](c2cc(F)ccc2F)CC1`, for which the IC50 was 1.67 nM.

Consider `COC(=O)N1[C@H](C)C[C@H](NS(C)(=O)=O)[C@@H]1CO[C@H]1CC[C@@H](C(C)C)CC1`, for which the IC50 came to 17.7 nM.

The molecule `CCc1ccccc1[C@H]1CC[C@@H](OC[C@H]2[C@@H](NS(=O)(=O)N(C)C)C[C@@H](C)N2C(=O)OC)CC1` returned an IC50 of 2.2 nM.

`COCCS(=O)(=O)N[C@H]1C[C@@H](C)N(C(=O)OC)[C@H]1COC1CCC(c2cccc(F)c2)CC1` (stereo partly specified) returned an IC50 of 4.6 nM.

Molecule `COC(=O)N1[C@H](C)C[C@H](NS(=O)(=O)N(C)CC#N)[C@@H]1CO[C@H]1CC[C@@H](c2cccc(F)c2)CC1` had an IC50 of 0.6 nM.

In the case of `COC(=O)N1[C@H](C)C[C@H](NS(=O)(=O)N(C)C)[C@@H]1CO[C@H]1CC[C@@H](c2ccccc2F)CC1`, the IC50 turned out to be 0.92 nM.

Take `CC[C@@H]1C[C@H](NS(C)(=O)=O)[C@H](CO[C@H]2CC[C@@H](c3ccccc3)CC2)N1C(=O)OC`: the IC50 turned out to be 3 nM.

The molecule `COC(=O)N1[C@H](C)C[C@H](NS(C)(=O)=O)[C@@H]1CO[C@H]1CC[C@@H](c2ccccc2C(F)(F)F)CC1` registered an IC50 of 6.82 nM.

`C[C@@H]1C[C@H](NS(=O)(=O)N(C)C)[C@H](CO[C@H]2CC[C@@H](c3cc(F)ccc3F)CC2)N1C(=O)OCC(F)F` gave an IC50 of 0.66 nM.

As for `COC(=O)N1[C@H](C)C[C@H](NS(=O)(=O)N(C)C)[C@@H]1CO[C@@H]1CC[C@H](c2cccc(F)c2)CC1F` (stereo partly specified), the IC50 turned out to be 3.63 nM.

Take `COC(=O)N1[C@H](C)C[C@H](NS(C)(=O)=O)[C@@H]1CO[C@H]1CC[C@@H](c2c(F)ccc(F)c2F)CC1`: the IC50 stood at 1.07 nM.

Molecule `COC(=O)N1[C@H](C)C[C@H](NS(=O)(=O)CC(F)F)[C@@H]1CO[C@H]1CC[C@@H](c2cccc(F)c2)CC1` registered an IC50 of 5.2 nM.

For the molecule `COC(=O)N1[C@H](C)C[C@H](NS(=O)(=O)N(C)C)[C@@H]1CO[C@H]1CC[C@H](c2ccc(C#N)c(C)c2)CC1`, the IC50 is 12.5 nM.

`COC(=O)N1[C@H](C)C[C@H](NS(=O)(=O)N(C)C)[C@@H]1CO[C@H]1CC[C@@H](c2ccc(C#N)c(C)c2)CC1`: the IC50 was 1.1 nM.

Regarding `COC(=O)N1[C@H](C)C[C@H](NS(=O)(=O)N(C)C)[C@@H]1CO[C@H]1CC[C@@H](c2cc(F)ccc2F)CC1`, the IC50 was 0.47 nM.

As for `COC(=O)N1[C@H](C)C[C@H](NS(C)(=O)=O)[C@@H]1CO[C@H]1CC[C@@H](c2ccc(F)c(F)c2)CC1`, the IC50 amounted to 25.5 nM.

On to `COC(=O)N1[C@H](C)C[C@H](NS(=O)(=O)CF)[C@@H]1CO[C@H]1CC[C@@H](c2ccccc2)CC1`, for which the IC50 stood at 0.93 nM.

Take `COC(=O)N1[C@H](C)C[C@H](NS(=O)(=O)CF)[C@@H]1COC1CCC(c2cccc(F)c2)CC1` (stereo partly specified): the IC50 came out at 1.4 nM.

Regarding `CC[C@H]1C[C@@H](NS(C)(=O)=O)[C@@H](CO[C@H]2CC[C@@H](c3ccccc3)CC2)N1C(=O)OC`, the IC50 worked out at 7330 nM.

The molecule `C=C[C@@H]1C[C@H](NS(C)(=O)=O)[C@H](CO[C@H]2CC[C@@H](c3ccccc3)CC2)N1C(=O)OC` (relative stereo) showed an IC50 of 9.4 nM.

(Values after ChEMBL document CHEMBL5728675, “5-alkyl pyrrolidine orexin receptor agonists” (2021).)
